Source: the NIST ThermoML archive (doi:10.1016/j.jct.2016.10.033)
± gives the expanded uncertainty stated by the source.

Test: xn = mol fraction of the nth substance listed
Settings: 103 kPa, Liquid, Vibrating tube method

CCO[Si](C)(C)OCC [dimethyldiethoxysilane] + CO[Si](C)(OC)c1ccccc1
mass density [kg/m3]
Settings | 298.15 K | 303.15 K | 308.15 K | 313.15 K | 318.15 K
x2 = 0 | 835.43 ± 0.41 | 830.05 ± 0.42 | 824.66 ± 0.42 | 819.23 ± 0.42 | 813.79 ± 0.42
x2 = 0.05 | 844.52 ± 0.42 | 839.2 ± 0.42 | 833.85 ± 0.42 | 828.47 ± 0.42 | 823.07 ± 0.42
x2 = 0.1001 | 853.53 ± 0.41 | 848.24 ± 0.42 | 842.96 ± 0.42 | 837.62 ± 0.42 | 832.3 ± 0.42
x2 = 0.1499 | 862.39 ± 0.41 | 857.16 ± 0.41 | 851.93 ± 0.41 | 846.65 ± 0.42 | 841.38 ± 0.42
x2 = 0.2002 | 871.25 ± 0.41 | 866.06 ± 0.41 | 860.86 ± 0.41 | 855.62 ± 0.41 | 850.38 ± 0.41
x2 = 0.2501 | 879.99 ± 0.41 | 874.82 ± 0.41 | 869.69 ± 0.41 | 864.51 ± 0.41 | 859.35 ± 0.41
x2 = 0.3001 | 888.58 ± 0.41 | 883.47 ± 0.41 | 878.37 ± 0.41 | 873.21 ± 0.41 | 868.08 ± 0.41
x2 = 0.3499 | 897.15 ± 0.41 | 892.09 ± 0.41 | 887.07 ± 0.41 | 881.99 ± 0.41 | 876.96 ± 0.41
x2 = 0.4 | 905.59 ± 0.41 | 900.56 ± 0.41 | 895.53 ± 0.41 | 890.45 ± 0.41 | 885.39 ± 0.41
x2 = 0.4499 | 914.02 ± 0.41 | 909.03 ± 0.41 | 904.09 ± 0.41 | 899.09 ± 0.41 | 894.16 ± 0.41
x2 = 0.5 | 922.3 ± 0.4 | 917.36 ± 0.41 | 912.44 ± 0.41 | 907.47 ± 0.41 | 902.55 ± 0.41
x2 = 0.55 | 930.51 ± 0.41 | 925.59 ± 0.41 | 920.71 ± 0.41 | 915.78 ± 0.41 | 910.89 ± 0.41
x2 = 0.5999 | 938.58 ± 0.41 | 933.7 ± 0.41 | 928.83 ± 0.41 | 923.93 ± 0.41 | 919.05 ± 0.41
x2 = 0.65 | 946.66 ± 0.41 | 941.82 ± 0.41 | 936.99 ± 0.41 | 932.13 ± 0.41 | 927.3 ± 0.41
x2 = 0.6999 | 954.61 ± 0.41 | 949.79 ± 0.41 | 944.98 ± 0.41 | 940.14 ± 0.41 | 935.33 ± 0.41
x2 = 0.75 | 962.69 ± 0.41 | 957.72 ± 0.41 | 952.94 ± 0.41 | 948.14 ± 0.41 | 943.35 ± 0.41
x2 = 0.8 | 970.29 ± 0.41 | 965.52 ± 0.41 | 960.76 ± 0.41 | 955.98 ± 0.41 | 951.2 ± 0.41
x2 = 0.8498 | 978.01 ± 0.41 | 973.29 ± 0.41 | 968.57 ± 0.41 | 963.83 ± 0.41 | 959.11 ± 0.41
x2 = 0.9 | 985.69 ± 0.41 | 980.99 ± 0.41 | 976.3 ± 0.41 | 971.58 ± 0.41 | 966.88 ± 0.41
x2 = 0.95 | 993.25 ± 0.41 | 988.58 ± 0.41 | 983.91 ± 0.41 | 979.23 ± 0.41 | 974.53 ± 0.41
